According to patent US7727960B2, “C5a receptor antagonists” (Jerini AG, priority 2003, dated 2010):
Positions of bridges follow the written chain, without caps; N, C: chain ends. Non-standard residues stand in square brackets, D forms with d. Residues, ends and D or L forms follow the SMILES beside them. Dip = N[C@H](C(=O)O)C(c1ccccc1)c1ccccc1; Phe(4-NH2) = Nc1ccc(C[C@H](N)C(=O)O)cc1; Phe(4-Me) = Cc1ccc(C[C@H](N)C(=O)O)cc1; dCha = N[C@H](CC1CCCCC1)C(=O)O; hLeu = CC(C)CC[C@H](N)C(=O)O; Nle = CCCC[C@H](N)C(=O)O; Orn = NCCC[C@H](N)C(=O)O; Pra = C#CC[C@H](N)C(=O)O; Nva = CCC[C@H](N)C(=O)O

Assays:
human C5aR (CD88) [1] = biological target: T1, human C5aR (CD88) (Homo sapiens, UniProt P21730); experiment: Determination of the IC50 value in an enzyme release assay (functional assay, antagonistic activity); assay type: cell-based; conditions: for IC50-value compared to compound 40 (in words): arginine replaced by hydrophobic substitutions; for inhibitory activity (in words): noteworthy = IC50 of less than 200 nM in the functional assay
T1 construct: expressed in transfected cells; host or cells: rat basophilic leukemia cells (RBL)
T1 sequence (P21730 1-350): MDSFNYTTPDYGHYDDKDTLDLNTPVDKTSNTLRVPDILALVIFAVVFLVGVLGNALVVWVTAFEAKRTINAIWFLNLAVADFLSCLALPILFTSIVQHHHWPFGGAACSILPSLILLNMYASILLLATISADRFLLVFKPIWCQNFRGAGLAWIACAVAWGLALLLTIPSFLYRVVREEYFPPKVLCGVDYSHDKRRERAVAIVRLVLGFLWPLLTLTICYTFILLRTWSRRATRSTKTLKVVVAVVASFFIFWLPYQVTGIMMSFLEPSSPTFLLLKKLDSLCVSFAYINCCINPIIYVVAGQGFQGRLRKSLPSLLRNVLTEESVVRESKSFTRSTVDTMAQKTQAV

human C5aR (CD88) [2] = biological target: T1, human C5aR (CD88); experiment: Determination of EC50 values in an enzyme release assay (agonistic activity, no C5a added); assay type: cell-based; conditions: cellular assay, up to a concentration of at least 1430 nM
Method: The determination of the EC50 value was performed in a way similar to the procedure described in example 11, with the only exception that 30 μl of the compound to be tested were mixed with 75 μl of the cell suspension described in example 11. There was no preincubation or addition of C5a for stimulation of the enzyme release.

Compound | inhibitory activity (in words) (human C5aR (CD88) [1]) | agonistic activity (in words) (human C5aR (CD88) [2]) | IC50-value compared to compound 40 (in words) (human C5aR (CD88) [1]) | other results
CCC[C@@H]1NC(=O)[C@H](Cc2c[nH]c3ccccc23)NC(=O)[C@@H](CC2CCCCC2)NC(=O)[C@@H]2CCCN2C(=O)[C@@H](NC(=O)[C@H](Cc2ccccc2)NC(C)=O)CCCNC1=O [Compound 31, Ac-Phe-[Orn-Pro-cha-Trp-Nva]] (Ac-F[Orn]P[dCha]W[Nva]; lactam 2-C) | noteworthy inhibitory activity | – | without a significant increase of the IC50-value | –
CCCC[C@@H]1NC(=O)[C@H](Cc2c[nH]c3ccccc23)NC(=O)[C@@H](CC2CCCCC2)NC(=O)[C@H](CO)NC(=O)[C@@H](NC(=O)[C@@H](N)Cc2ccccc2)CCCNC1=O [Compound 44, H-Phe-[Orn-Ser-cha-Trp-Nle]] (H-F[Orn]S[dCha]W[Nle]; lactam 2-C) | – | pure antagonists | – | –
Ac-Phe-Orn-cha-cha-Bta-Phe-NH2 | – | pure antagonists | – | –
CC(=O)N[C@@H](Cc1ccccc1)C(=O)N[C@@H](Cc1c[nH]c2ccccc12)C(=O)N1CCC[C@H]1C(=O)N[C@H](CC1CCCCC1)C(=O)N[C@@H](Cc1c[nH]c2ccccc12)C(=O)N[C@@H](Cc1ccccc1)C(N)=O [Compound 84, Ac-Phe-Trp-Pro-cha-Trp-Phe-NH2] (Ac-FWP[dCha]WF-NH2) | – | pure antagonists | – | –
CC(=O)N[C@@H](Cc1ccccc1)C(=O)N[C@H]1CCCNC(=O)[C@H](CCC(C)C)NC(=O)[C@H](Cc2c[nH]c3ccccc23)NC(=O)[C@@H](CC2CCCCC2)NC(=O)[C@@H]2CCCN2C1=O [Compound 32, Ac-Phe-[Orn-Pro-cha-Trp-Hle]] (Ac-F[Orn]P[dCha]W[hLeu]; lactam 2-C) | noteworthy inhibitory activity | – | without a significant increase of the IC50-value | –
CC(=O)N[C@@H](Cc1ccccc1)C(=O)N[C@@H](CCCNC(=N)N)C(=O)N1CCC[C@H]1C(=O)N[C@H](CC1CCCCC1)C(=O)N[C@@H](Cc1c[nH]c2ccccc12)C(=O)N[C@@H](Cc1ccccc1)C(N)=O [Compound 88, Ac-Phe-Arg-Pro-cha-Trp-Phe-NH2] (Ac-FRP[dCha]WF-NH2) | – | pure antagonists | – | –
CC(=O)N[C@@H](C)C(=O)N[C@H]1CCCNC(=O)[C@H](CCCN=C(N)N)NC(=O)[C@H](Cc2c[nH]c3ccccc23)NC(=O)[C@@H](CC2CCCCC2)NC(=O)[C@@H]2CCCN2C1=O [Compound 45] (Ac-A[Orn]P[dCha]WR; lactam 2-C) | – | – | – | IC50 (human C5aR (CD88) [1]; antagonistic activity, enzyme release assay in RBL cells expressing human C5aR (CD88), read-out: activity (group)): > 2000 nM
CC(=O)N[C@@H](Cc1ccccc1)C(=O)N[C@H]1CCCNC(=O)[C@H](Cc2ccc(N)cc2)NC(=O)[C@H](Cc2c[nH]c3ccccc23)NC(=O)[C@@H](CC2CCCCC2)NC(=O)[C@@H]2CCCN2C1=O [Compound 14, Ac-Phe-[Orn-Pro-cha-Trp-Paf]] (Ac-F[Orn]P[dCha]W[Phe(4-NH2)]; lactam 2-C) | noteworthy inhibitory activity | – | – | –

Continued, in another order:

inhibitory activity (in words) (human C5aR (CD88) [1]) | agonistic activity (in words) (human C5aR (CD88) [2]) | Compound | IC50-value compared to compound 40 (in words) (human C5aR (CD88) [1]) | other results
noteworthy inhibitory activity | – | CSCC[C@@H]1NC(=O)[C@H](Cc2c[nH]c3ccccc23)NC(=O)[C@@H](CC2CCCCC2)NC(=O)[C@@H]2CCCN2C(=O)[C@@H](NC(=O)[C@H](Cc2ccccc2)NC(C)=O)CCCNC1=O [Compound 29, Ac-Phe-[Orn-Pro-cha-Trp-Met]] (Ac-F[Orn]P[dCha]WM; lactam 2-C) | without a significant increase of the IC50-value | –
– | pure antagonists | H-Phe-[Orn-Pro-cha-Trp-Phe] | – | –
– | pure antagonists | CC(=O)N[C@H](C(=O)N[C@@H](CCCN)C(=O)N1CCC[C@H]1C(=O)N[C@H](CC1CCCCC1)C(=O)N[C@@H](Cc1c[nH]c2ccccc12)C(=O)N[C@@H](Cc1ccccc1)C(N)=O)C(c1ccccc1)c1ccccc1 [Compound 71, Ac-Ebw-Orn-Pro-cha-Trp-Phe-NH2] (Ac-[Dip][Orn]P[dCha]WF-NH2) | – | –
noteworthy inhibitory activity | – | C#CC[C@@H]1NC(=O)[C@H](Cc2c[nH]c3ccccc23)NC(=O)[C@@H](CC2CCCCC2)NC(=O)[C@@H]2CCCN2C(=O)[C@@H](NC(=O)[C@H](Cc2ccccc2)NC(C)=O)CCCNC1=O [Compound 35, Ac-Phe-[Orn-Pro-cha-Trp-Eag]] (Ac-F[Orn]P[dCha]W[Pra]; lactam 2-C) | without a significant increase of the IC50-value | –
noteworthy inhibitory activity | – | CC(=O)N[C@@H](Cc1ccccc1)C(=O)N[C@H]1CCCNC(=O)[C@H](Cc2ccc(C)cc2)NC(=O)[C@H](Cc2c[nH]c3ccccc23)NC(=O)[C@@H](CC2CCCCC2)NC(=O)[C@@H]2CCCN2C1=O [Compound 36, Ac-Phe-[Orn-Pro-cha-Trp-Pmf]] (Ac-F[Orn]P[dCha]W[Phe(4-Me)]; lactam 2-C) | without a significant increase of the IC50-value | –
